Laboratory results: paper PMC4071002, “Identification and In Vitro Reactivity of Celiac Immunoactive Peptides in an Apparent Gluten-Free Beer” (PLoS ONE, 2014)
Residues, ends and D or L forms follow the SMILES beside them.

System: moAb A1 (anti-gliadin 33-mer)
Experiment: A1 competitive ELISA (immobilized gliadin, A1-HRP)
Type: binding
Conditions: Figure 2A
Procedure: Maxisorp microtitre plates (Nunc, Roskilde, Denmark) were coated with gliadin solution (Sigma, St Louis, MO, USA) and incubated overnight at 4°C. The plates were washed with phosphate-buffered saline (PBS) containing 0.05% Tween 20 and blocked with 5% non-fat dry milk in PBS for 1 h at room temperature (RT). 33-mer peptide was used as standard. Serial dilutions of peptides were made in PBS-bovine serum albumin (BSA) 3%, to each of which was added G12-HRP or A1-HRP antibody solution [14]. The samples were pre-incubated at RT, and then added to the wells. After 30 min of incubation at RT, the plates were washed and substrate solution (TMB, Sigma) was added. The reaction was stopped with 1 M sulphuric acid, and the absorbance at 450 nm was measured (microplate reader UVM340; Asys Hitech GmbH, Eugendorf, Austria). Two separate assays were performed, each with three repetitions.
Peptide curves were obtained by plotting percentage maximum absorbance against logarithm of antigen concentration. The software package Sigma Plot 9.0 (Systat Software, Inc., Point Richmond, CA, USA) was used to calculate IC50 and the cross-reactivity (CR) for each peptide. The IC50 is defined as the concentration that produces a reduction of 50% in the peak signal in the ELISA. The CR was determined as (IC50 of the peptide that presents the greatest affinity for the antibody/IC50 of each peptide assayed) x 100.

moAb A1 IC50 (competitive ELISA, gliadin-coated plates, A1-HRP, 30 min RT, absorbance 450 nm, two assays, three replicates each): 0.60 µg/mL
Compound: CC(C)C[C@H](NC(=O)[C@H](CCC(N)=O)NC(=O)[C@@H](N)CC(C)C)C(=O)N[C@@H](CCC(N)=O)C(=O)N1CCC[C@H]1C(=O)N[C@@H](Cc1ccccc1)C(=O)N1CCC[C@H]1C(=O)N[C@@H](CCC(N)=O)C(=O)N1CCC[C@H]1C(=O)N[C@@H](CCC(N)=O)C(=O)N[C@@H](CC(C)C)C(=O)N1CCC[C@H]1C(=O)N[C@@H](Cc1ccc(O)cc1)C(=O)N1CCC[C@H]1C(=O)N[C@@H](CCC(N)=O)C(=O)N1CCC[C@H]1C(=O)N[C@@H](CCC(N)=O)C(=O)N[C@@H](CC(C)C)C(=O)N1CCC[C@H]1C(=O)N[C@@H](Cc1ccc(O)cc1)C(=O)N1CCC[C@H]1C(=O)N[C@@H](CCC(N)=O)C(=O)N1CCC[C@H]1C(=O)N[C@@H](CCC(N)=O)C(=O)N[C@@H](CC(C)C)C(=O)N1CCC[C@H]1C(=O)N[C@@H](Cc1ccc(O)cc1)C(=O)N1CCC[C@H]1C(=O)N[C@@H](CCC(N)=O)C(=O)N1CCC[C@H]1C(=O)N[C@@H](CCC(N)=O)C(=O)N1CCC[C@H]1C(=O)N[C@@H](Cc1ccccc1)C(=O)O [33-mer] (H-LQLQPFPQPQLPYPQPQLPYPQPQLPYPQPQPF-OH; N-terminus and C-terminus assumed)
moAb A1 CR (cross-reactivity = (IC50 of peptide with greatest affinity / IC50 of each peptide) x 100, PP 24.1 = 100): 241.67%
